US20250275953A1, “VODOBATINIB FOR REDUCING PROGRESSION OF PARKINSON'S DISEASE” (Sun Pharma Advanced Research Company Ltd., priority 2022, published 2025)
Several values for one entry are separate records, joined by “and”; a condition that tells them apart may be missing. Equal entries are not always repeated. Where two headings read alike, the source gives them in different places.

Assay: Plasma pharmacokinetics, Parkinson's disease patients, once daily for 14 days
Type: in vivo, human
Conditions: PD patients; for AUC(0-t) / AUC / half-life / Cmax / Tmax: human; for AUC(0-t): read-out: AUC0-24 Mean
Excerpt: Of these, 44 subjects completed the study. An additional 10 subjects were enrolled in the open label part of the study, of these, one subject was discontinued due to an AE of vomiting.
Safety population was comprised of 48 subjects (not including those in the open label cohorts) and PK population was comprised of 36 subjects from double blind part and 10 subjects from open label part of the study. No subjects were discontinued from the study due to protocol deviation.
The PK analysis was performed on the PK population and safety analysis was performed on this population as per the protocol described before.
Study NCT02970019 was a multi-center safety and tolerability study of vodobatinib in 60 subjects with Parkinson's Disease (diagnosed with PD according to the Brain Bank criteria of the United Kingdom Parkinson's Disease Society) who were randomized to receive placebo or various daily doses of vodobatinib for 14 days in a parallel assignment design with quadruple masking (participant, care provider, investigator, and outcomes assessor.) In study NCT02970019, consecutive cohorts of up to eight subjects received once-daily doses of 6, 12, 18, 24, 48, 96, 192, or 384 mg of study drug for 14 days, with six subjects in each cohort on vodobatinib and two subjects in each cohort on placebo. An alternating panel design was used such that subjects in the 6 and 18 mg cohorts were the same, and subjects in the 12 and 24 mg cohorts were the same, thus yielding 48 total individuals enrolled in the eight cohorts. There was a wash-out period of 14 days between each were studied in sequential ascending dose cohorts. In parallel to the double-blind cohorts, up to four subjects per dose cohort were enrolled in an open-label study of vodobatinib to receive 24, 48 or 96 mg once-daily doses of for 14 days. These subjects underwent lumbar puncture to collect CSF on Day 1, and 2-3 h after the last morning dose on Day 14. PK blood draws (for both double-blind and open label) were collected at pre-dose (˜30 min) and at 0.5, 1, 2, 4, 8, 12 and 24 h post-dose on Days 1 and 14.
Vodobatinib levels in plasma and CSF were determined using a fully validated LC-MS/MS assay with lower limits of quantitation (LLOQ) of 2.5 ng/mL and 0.05 ng/mL, respectively. PK analyses were performed using standard non-compartmental analysis with Phoenix® WinNonlin® software Version 6.4 to estimate the PK parameters Cmax, Tmax, AUCtau and Css. Descriptive statistics were used to characterize vodobatinib concentrations and PK parameters in plasma and CSF. Statistical calculations were performed with SAS software (Version 9.4, SAS Institute, Cary, North Carolina, USA).

Compound: Cc1ccc(C(=O)NNC(=O)c2c(C)cccc2Cl)cc1C#Cc1cnc2ccccc2c1 [N′-(2-chloro-6-methylbenzoyl)-4-methyl-3-[2-(3-quinolyl)ethynyl]-benzohydrazide]
- Max Conc Geo. Mean (6 mg): 138.72 ng/mL
- Max Conc Mean (6 mg): 182 ng/mL and 181.67 ng/mL
- Max Conc Median (6 mg): 133.50 ng/mL
- Max Conc Geo. Mean (12 mg): 270.17 ng/mL
- Max Conc Mean (12 mg): 301.00 ng/mL
- Max Conc Median (12 mg): 242.50 ng/mL
- Max Conc Geo. Mean (18 mg): 300.12 ng/mL
- Max Conc Mean (18 mg): 308.50 ng/mL
- Max Conc Median (18 mg): 310.00 ng/mL
- Max Conc Geo. Mean (24 mg): 677.41 ng/mL
- Max Conc Mean (24 mg): 715.25 ng/mL
- Max Conc Median (24 mg): 657.00 ng/mL
- Max Conc Geo. Mean (48 mg): 930.30 ng/mL
- Max Conc Mean (48 mg): 1110.44 ng/mL
- Max Conc Median (48 mg): 844.00 ng/mL
- Max Conc Geo. Mean (96 mg): 2298.86 ng/mL
- Max Conc Mean (96 mg): 2802.50 ng/mL
- Max Conc Median (96 mg): 2350.00 ng/mL
- Max Conc Geo. Mean (192 mg): 2561.39 ng/mL
- Max Conc Mean (192 mg): 3233.80 ng/mL
- Max Conc Median (192 mg): 2580.00 ng/mL
- Max Conc Geo. Mean (384 mg): 4198.52 ng/mL
- Max Conc Mean (384 mg): 4512 ng/mL and 4512.00 ng/mL
- Max Conc Median (384 mg): 5320.00 ng/mL
- AUC(0-t) (6 mg, Day 14, plasma): 1250 ng·h/mL
- AUC (6 mg, read-out: AUC Over Dosing Interval Geo. Mean): 1090 ng·h/mL
- AUC (6 mg, read-out: AUC Over Dosing Interval Mean): 1250 ng·h/mL
- AUC (6 mg, read-out: AUC Over Dosing Interval Median): 1040 ng·h/mL
- AUC (6 mg, read-out: AUC Over Dosing Interval Min, Max): 470 to 2360 ng·h/mL
- half-life (6 mg, read-out: Half-Life Lambda Z Geo. Mean (converted)): 668 min
- half-life (6 mg, read-out: Half-Life Lambda Z Mean (converted)): 668 min
- half-life (6 mg, read-out: Half-Life Lambda Z Median (converted)): 668 min
- half-life (6 mg, read-out: Half-Life Lambda Z Min, Max (converted)): 666 min
- AUC (12 mg, read-out: AUC Over Dosing Interval Geo. Mean): 2710 ng·h/mL
- AUC (12 mg, read-out: AUC Over Dosing Interval Mean): 3250 ng·h/mL
- AUC (12 mg, read-out: AUC Over Dosing Interval Median): 2530 ng·h/mL
- AUC (12 mg, read-out: AUC Over Dosing Interval Min, Max): 1440 to 8240 ng·h/mL
- AUC (18 mg, read-out: AUC Over Dosing Interval Geo. Mean): 2860 ng·h/mL
- AUC (18 mg, read-out: AUC Over Dosing Interval Mean): 3370 ng·h/mL
- AUC (18 mg, read-out: AUC Over Dosing Interval Median): 4160 ng·h/mL
- AUC (18 mg, read-out: AUC Over Dosing Interval Min, Max): 908 to 4260 ng·h/mL
- half-life (18 mg, read-out: Half-Life Lambda Z Mean (converted)): 808 min
- half-life (18 mg, read-out: Half-Life Lambda Z Median (converted)): 808 min
- half-life (18 mg, read-out: Half-Life Lambda Z Min, Max (converted)): 810 min
- AUC (24 mg, read-out: AUC Over Dosing Interval Geo. Mean): 5250 ng·h/mL
- AUC (24 mg, read-out: AUC Over Dosing Interval Mean): 5720 ng·h/mL
- AUC (24 mg, read-out: AUC Over Dosing Interval Median): 6640 ng·h/mL
- AUC (24 mg, read-out: AUC Over Dosing Interval Min, Max): 2460 to 8080 ng·h/mL
- half-life (24 mg, read-out: Half-Life Lambda Z Geo. Mean (converted)): 630 min
- half-life (24 mg, read-out: Half-Life Lambda Z Mean (converted)): 638 min
- half-life (24 mg, read-out: Half-Life Lambda Z Median (converted)): 638 min
- half-life (24 mg, read-out: Half-Life Lambda Z Min, Max (converted)): 534 to 744 min
- AUC (48 mg, read-out: AUC Over Dosing Interval Geo. Mean): 7010 ng·h/mL
- AUC (48 mg, read-out: AUC Over Dosing Interval Mean): 7910 ng·h/mL
- AUC (48 mg, read-out: AUC Over Dosing Interval Median): 8670 ng·h/mL
- AUC (48 mg, read-out: AUC Over Dosing Interval Min, Max): 2910 to 14200 ng·h/mL
- half-life (48 mg, read-out: Half-Life Lambda Z Geo. Mean (converted)): 998 min
- half-life (48 mg, read-out: Half-Life Lambda Z Mean (converted)): 1180 min
- half-life (48 mg, read-out: Half-Life Lambda Z Median (converted)): 681 min
- half-life (48 mg, read-out: Half-Life Lambda Z Min, Max (converted)): 672 to 2180 min
- AUC (96 mg, read-out: AUC Over Dosing Interval Geo. Mean): 15100 ng·h/mL
- AUC (96 mg, read-out: AUC Over Dosing Interval Mean): 17100 ng·h/mL
- AUC (96 mg, read-out: AUC Over Dosing Interval Median): 13900 ng·h/mL
- AUC (96 mg, read-out: AUC Over Dosing Interval Min, Max): 6870 to 38700 ng·h/mL
- half-life (96 mg, read-out: Half-Life Lambda Z Geo. Mean (converted)): 793 min
- half-life (96 mg, read-out: Half-Life Lambda Z Mean (converted)): 940 min
- half-life (96 mg, read-out: Half-Life Lambda Z Median (converted)): 928 min
- half-life (96 mg, read-out: Half-Life Lambda Z Min, Max (converted)): 342 to 1570 min
- AUC (192 mg, read-out: AUC Over Dosing Interval Geo. Mean): 27600 ng·h/mL
- AUC (192 mg, read-out: AUC Over Dosing Interval Mean): 33800 ng·h/mL
- AUC (192 mg, read-out: AUC Over Dosing Interval Median): 24800 ng·h/mL
- AUC (192 mg, read-out: AUC Over Dosing Interval Min, Max): 13800 to 82700 ng·h/mL
- AUC(0-t) (384 mg, Day 14, plasma): 43800 ng·h/mL
- AUC (384 mg, read-out: AUC Over Dosing Interval Geo. Mean): 40400 ng·h/mL
- AUC (384 mg, read-out: AUC Over Dosing Interval Mean): 43800 ng·h/mL
- AUC (384 mg, read-out: AUC Over Dosing Interval Median): 44500 ng·h/mL
- AUC (384 mg, read-out: AUC Over Dosing Interval Min, Max): 18600 to 66700 ng·h/mL
- Cmax (oral, 6 mg, Day 1, plasma): 164 ng/mL
- AUC(0-t) (oral, 6 mg, Day 1, plasma): 794 ng·h/mL
- Tmax (oral, 6 mg, Day 1, plasma, read-out: Tmax median): 2 h
- Cmax (oral, 6 mg, Day 14, plasma): 182 ng/mL
- Tmax (oral, 6 mg, Day 14, plasma, read-out: Tmax median (range)): 2 h
- Cmax (oral, 12 mg, Day 1, plasma): 255 ng/mL
- AUC(0-t) (oral, 12 mg, Day 1, plasma): 2040 ng·h/mL
- Tmax (oral, 12 mg, Day 1, plasma, read-out: Tmax median): 2 h
- Cmax (oral, 12 mg, Day 14, plasma): 301 ng/mL
- AUC(0-t) (oral, 12 mg, Day 14, plasma): 3250 ng·h/mL
- Tmax (oral, 12 mg, Day 14, plasma, read-out: Tmax median (range)): 2 h
- Cmax (oral, 18 mg, Day 1, plasma): 410 ng/mL
- AUC(0-t) (oral, 18 mg, Day 1, plasma): 2730 ng·h/mL
- Tmax (oral, 18 mg, Day 1, plasma, read-out: Tmax median): 2 h
- Cmax (oral, 18 mg, Day 14, plasma): 309 ng/mL
- AUC(0-t) (oral, 18 mg, Day 14, plasma): 3370 ng·h/mL
- Tmax (oral, 18 mg, Day 14, plasma, read-out: Tmax median (range)): 3 h
- Cmax (oral, 24 mg, Day 1, plasma): 385 ng/mL
- AUC(0-t) (oral, 24 mg, Day 1, plasma): 2690 ng·h/mL
- Tmax (oral, 24 mg, Day 1, plasma, read-out: Tmax median): 4 h
- Cmax (oral, 24 mg, Day 14, plasma): 715 ng/mL
- AUC(0-t) (oral, 24 mg, Day 14, plasma): 5720 ng·h/mL
- Tmax (oral, 24 mg, Day 14, plasma, read-out: Tmax median (range)): 2 h
- Cmax (oral, 48 mg, Day 1, plasma): 964 ng/mL
- AUC(0-t) (oral, 48 mg, Day 1, plasma): 5310 ng·h/mL
- Tmax (oral, 48 mg, Day 1, plasma, read-out: Tmax median): 4 h
- Cmax (oral, 48 mg, Day 14, plasma): 1110 ng/mL
- AUC(0-t) (oral, 48 mg, Day 14, plasma): 7910 ng·h/mL
- Tmax (oral, 48 mg, Day 14, plasma, read-out: Tmax median (range)): 2 h
- Cmax (oral, 96 mg, Day 1, plasma): 1360 ng/mL
- AUC(0-t) (oral, 96 mg, Day 1, plasma): 10200 ng·h/mL
- Tmax (oral, 96 mg, Day 1, plasma, read-out: Tmax median): 4 h
- Cmax (oral, 96 mg, Day 14, plasma): 2800 ng/mL
- AUC(0-t) (oral, 96 mg, Day 14, plasma): 17100 ng·h/mL
- Tmax (oral, 96 mg, Day 14, plasma, read-out: Tmax median (range)): 2 h
- Cmax (oral, 192 mg, Day 1, plasma): 1530 ng/mL
- AUC(0-t) (oral, 192 mg, Day 1, plasma): 18600 ng·h/mL
- Tmax (oral, 192 mg, Day 1, plasma, read-out: Tmax median): 2 h
- Cmax (oral, 192 mg, Day 14, plasma): 3230 ng/mL
- AUC(0-t) (oral, 192 mg, Day 14, plasma): 33800 ng·h/mL
- Tmax (oral, 192 mg, Day 14, plasma, read-out: Tmax median (range)): 1 h
- Cmax (oral, 384 mg, Day 1, plasma): 3020 ng/mL
- AUC(0-t) (oral, 384 mg, Day 1, plasma): 29900 ng·h/mL
- Tmax (oral, 384 mg, Day 1, plasma, read-out: Tmax median): 4.1 h
- Cmax (oral, 384 mg, Day 14, plasma): 4510 ng/mL
- AUC(0-t) (oral, 384 mg, Day 14, plasma): 43500 ng·h/mL
- Tmax (oral, 384 mg, Day 14, plasma, read-out: Tmax median (range)): 1 h
